Legend:
Type in all cases: cell-based
[1] = test system: IL-2 secretion from T cells in human whole blood; conditions: read-out: WB (IL-2) IC50 (nM, Avg)
hKv1.3 = hKv1.3 (Homo sapiens, UniProt P22001); assay: cell-based; conditions: Kv1.3 (IWQ) IC50 (nM, Avg)
[2] = test system: IFN-g secretion from T cells in human whole blood; conditions: read-out: WB (IFNg) IC50 (nM, Avg)

Sequence of hKv1.3 (P22001 whole entry): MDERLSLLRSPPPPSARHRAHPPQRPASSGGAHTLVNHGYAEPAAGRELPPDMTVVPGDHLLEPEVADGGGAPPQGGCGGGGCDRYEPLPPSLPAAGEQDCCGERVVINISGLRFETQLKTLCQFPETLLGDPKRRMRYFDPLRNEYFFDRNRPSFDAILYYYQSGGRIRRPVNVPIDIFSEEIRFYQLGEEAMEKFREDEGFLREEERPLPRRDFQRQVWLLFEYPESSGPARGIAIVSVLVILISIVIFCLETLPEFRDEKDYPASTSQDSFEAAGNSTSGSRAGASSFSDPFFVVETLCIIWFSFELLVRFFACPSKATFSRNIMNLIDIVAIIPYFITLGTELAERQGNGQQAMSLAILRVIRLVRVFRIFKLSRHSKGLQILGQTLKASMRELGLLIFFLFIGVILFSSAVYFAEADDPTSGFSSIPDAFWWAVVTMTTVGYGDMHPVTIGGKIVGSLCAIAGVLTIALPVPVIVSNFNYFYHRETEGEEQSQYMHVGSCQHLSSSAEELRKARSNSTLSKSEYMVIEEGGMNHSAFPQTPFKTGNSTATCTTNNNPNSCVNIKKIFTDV

| Structure (SMILES) | IC50 [1] | IC50 (hKv1.3) | IC50 [2] |
| --- | --- | --- | --- |
| CCC[C@@H]1NC(=O)[C@H](CO)NC(=O)[C@H](Cc2c[nH]cn2)NC(=O)[C@H](CCCCN)NC(=O)[C@@H]2CSSC[C@@H]3NC(=O)[C@H]([C@@H](C)O)NC(=O)[C@H](CCCCN)NC(=O)[C@H](CCCNC(=N)N)NC(=O)[C@H](CSSC[C@H](NC(=O)[C@H](CCCNC(=N)N)NC(=O)[C@H](CO)NC(=O)[C@H](CCCCN)NC(=O)[C@@H]4CCCN4C(=O)[C@H]([C@@H](C)CC)NC(=O)[C@H]([C@@H](C)O)NC(=O)[C@H](CC(=O)O)NC(=O)[C@H]([C@@H](C)CC)NC(=O)[C@@H](NC(=O)[C@H](CO)NC(=O)[C@@H](N)CCCNC(=N)N)CSSC[C@@H](C(=O)N[C@@H](CC(=O)O)C(N)=O)NC(=O)[C@H]([C@@H](C)O)NC(=O)CNC3=O)C(=O)N[C@@H]([C@@H](C)O)C(=O)N[C@@H](C)C(=O)N[C@@H](Cc3ccccc3)C(=O)N[C@@H](CCCCN)C(=O)N2)NC(=O)[C@H](Cc2ccccc2)NC(=O)[C@H](CO)NC(=O)[C@H](CC(C)C)NC(=O)[C@H](CCCNC(=N)N)NC(=O)[C@H](Cc2ccc(O)cc2)NC(=O)[C@H](CCCCN)NC1=O [[Lys16,Nva21]ShK-Asp-amide] | 0.255 nM | 0.28 nM | 0.349 nM |
| CCC[C@@H]1NC(=O)[C@H](CO)NC(=O)[C@H](Cc2c[nH]cn2)NC(=O)[C@H](CCCCN)NC(=O)[C@@H]2CSSC[C@@H]3NC(=O)[C@H]([C@@H](C)O)NC(=O)[C@H](CCCCN)NC(=O)[C@H](CCCNC(=N)N)NC(=O)[C@H](CSSC[C@H](NC(=O)[C@H](CCCNC(=N)N)NC(=O)[C@H](CO)NC(=O)[C@H](CCCCN)NC(=O)[C@@H]4CCCN4C(=O)[C@H]([C@@H](C)CC)NC(=O)[C@H]([C@@H](C)O)NC(=O)[C@H](CC(=O)O)NC(=O)[C@H]([C@@H](C)CC)NC(=O)[C@@H](NC(=O)[C@H](CO)NC(=O)[C@@H](N)CCCNC(=N)N)CSSC[C@@H](C(=O)N[C@@H](CO)C(N)=O)NC(=O)[C@H]([C@@H](C)O)NC(=O)CNC3=O)C(=O)N[C@@H]([C@@H](C)O)C(=O)N[C@@H](C)C(=O)N[C@@H](Cc3ccccc3)C(=O)N[C@@H](CCCCN)C(=O)N2)NC(=O)[C@H](Cc2ccccc2)NC(=O)[C@H](CO)NC(=O)[C@H](CC(C)C)NC(=O)[C@H](CCCNC(=N)N)NC(=O)[C@H](Cc2ccc(O)cc2)NC(=O)[C@H](CCCCN)NC1=O [[Lys16,Nva21]ShK-Ser-amide] | 0.467 nM | 0.09 nM | 0.662 nM |
| CCC[C@@H]1NC(=O)[C@H](CO)NC(=O)[C@H](Cc2c[nH]cn2)NC(=O)[C@H](CCCCN)NC(=O)[C@@H]2CSSC[C@@H]3NC(=O)[C@H]([C@@H](C)O)NC(=O)[C@H](CCCCN)NC(=O)[C@H](CCCNC(=N)N)NC(=O)[C@H](CSSC[C@H](NC(=O)[C@H](CCCNC(=N)N)NC(=O)[C@H](CO)NC(=O)[C@H](CCCCN)NC(=O)[C@@H]4CCCN4C(=O)[C@H]([C@@H](C)CC)NC(=O)[C@H]([C@@H](C)O)NC(=O)[C@H](CC(=O)O)NC(=O)[C@H]([C@@H](C)CC)NC(=O)[C@@H](NC(=O)[C@H](CO)NC(=O)[C@@H](N)CCCNC(=N)N)CSSC[C@@H](C(=O)N[C@H](C(N)=O)[C@@H](C)O)NC(=O)[C@H]([C@@H](C)O)NC(=O)CNC3=O)C(=O)N[C@@H]([C@@H](C)O)C(=O)N[C@@H](C)C(=O)N[C@@H](Cc3ccccc3)C(=O)N[C@@H](CCCCN)C(=O)N2)NC(=O)[C@H](Cc2ccccc2)NC(=O)[C@H](CO)NC(=O)[C@H](CC(C)C)NC(=O)[C@H](CCCNC(=N)N)NC(=O)[C@H](Cc2ccc(O)cc2)NC(=O)[C@H](CCCCN)NC1=O [[Lys16,Nva21]ShK-Thr-amide] | 0.385 nM | 0.03 nM | 0.702 nM |
| CCC[C@@H]1NC(=O)[C@H](CO)NC(=O)[C@H](Cc2c[nH]cn2)NC(=O)[C@H](CCCCN)NC(=O)[C@@H]2CSSC[C@@H]3NC(=O)[C@H]([C@@H](C)O)NC(=O)[C@H](CCCCN)NC(=O)[C@H](CCCNC(=N)N)NC(=O)[C@H](CSSC[C@H](NC(=O)[C@H](CCCNC(=N)N)NC(=O)[C@H](CO)NC(=O)[C@H](CCCCN)NC(=O)[C@@H]4CCCN4C(=O)[C@H]([C@@H](C)CC)NC(=O)[C@H]([C@@H](C)O)NC(=O)[C@H](CC(=O)O)NC(=O)[C@H]([C@@H](C)CC)NC(=O)[C@@H](NC(=O)[C@H](CO)NC(=O)[C@@H](N)CCCNC(=N)N)CSSC[C@@H](C(=O)NCCC(=O)O)NC(=O)[C@H]([C@@H](C)O)NC(=O)CNC3=O)C(=O)N[C@@H]([C@@H](C)O)C(=O)N[C@@H](C)C(=O)N[C@@H](Cc3ccccc3)C(=O)N[C@@H](CCCCN)C(=O)N2)NC(=O)[C@H](Cc2ccccc2)NC(=O)[C@H](CO)NC(=O)[C@H](CC(C)C)NC(=O)[C@H](CCCNC(=N)N)NC(=O)[C@H](Cc2ccc(O)cc2)NC(=O)[C@H](CCCCN)NC1=O [[Lys16,Nva21]ShK-betaAla] | 0.304 nM | 12.6 nM | 0.231 nM |
| CC[C@H](C)[C@@H]1NC(=O)[C@@H](NC(=O)[C@H](CO)NC(=O)[C@@H](N)CCCNC(=N)N)CSSC[C@@H](C(=O)O)NC(=O)[C@H]([C@@H](C)O)NC(=O)CNC(=O)[C@@H]2CSSC[C@@H]3NC(=O)[C@H](CCC(N)=O)NC(=O)[C@H](Cc4ccccc4)NC(=O)[C@H](C)NC(=O)[C@H]([C@@H](C)O)NC(=O)[C@H](CSSC[C@H](NC(=O)[C@H](Cc4ccccc4)NC(=O)[C@H](CO)NC(=O)[C@H](CC(C)C)NC(=O)[C@H](CCCNC(=N)N)NC(=O)[C@H](Cc4ccc(O)cc4)NC(=O)[C@H](CCCCN)NC(=O)[C@H](CCSC)NC(=O)[C@H](CO)NC(=O)[C@H](CCCCN)NC(=O)[C@H](CCCCN)NC3=O)C(=O)N[C@@H](CCCNC(=N)N)C(=O)N[C@@H](CCCCN)C(=O)N[C@@H]([C@@H](C)O)C(=O)N2)NC(=O)[C@H](CCCNC(=N)N)NC(=O)[C@H](CO)NC(=O)[C@H](CCCCN)NC(=O)[C@@H]2CCCN2C(=O)[C@H]([C@@H](C)CC)NC(=O)[C@H]([C@@H](C)O)NC(=O)[C@H](CC(=O)O)NC1=O [[Lys19]ShK] | 0.041 nM | 0.189 nM | 0.089 nM |
| CC[C@H](C)[C@@H]1NC(=O)[C@@H](NC(=O)[C@H](CO)NC(=O)[C@@H](N)CCCNC(=N)N)CSSC[C@@H](C(=O)O)NC(=O)[C@H]([C@@H](C)O)NC(=O)CNC(=O)[C@@H]2CSSC[C@@H]3NC(=O)[C@H](CCC(N)=O)NC(=O)[C@H](Cc4ccccc4)NC(=O)[C@H](C)NC(=O)[C@H]([C@@H](C)O)NC(=O)[C@H](CSSC[C@H](NC(=O)[C@H](Cc4ccccc4)NC(=O)[C@H](CO)NC(=O)[C@H](CC(C)C)NC(=O)[C@H](CCCNC(=N)N)NC(=O)[C@H](Cc4ccc(O)cc4)NC(=O)[C@H](CCCCN)NC(=O)[C@H](CCSC)NC(=O)[C@H](CCCCN)NC(=O)[C@H](Cc4c[nH]cn4)NC(=O)[C@H](CCCCN)NC3=O)C(=O)N[C@@H](CCCNC(=N)N)C(=O)N[C@@H](CCCCN)C(=O)N[C@@H]([C@@H](C)O)C(=O)N2)NC(=O)[C@H](CCCNC(=N)N)NC(=O)[C@H](CO)NC(=O)[C@H](CCCCN)NC(=O)[C@@H]2CCCN2C(=O)[C@H]([C@@H](C)CC)NC(=O)[C@H]([C@@H](C)O)NC(=O)[C@H](CC(=O)O)NC1=O [[Lys20]ShK] | 0.108 nM | 1.33 nM | 0.192 nM |
| CC[C@H](C)[C@@H]1NC(=O)[C@@H](NC(=O)[C@H](CO)NC(=O)[C@@H](N)CCCNC(=N)N)CSSC[C@@H](C(=O)O)NC(=O)[C@H]([C@@H](C)O)NC(=O)CNC(=O)[C@@H]2CSSC[C@@H]3NC(=O)[C@H](CCC(N)=O)NC(=O)[C@H](Cc4ccccc4)NC(=O)[C@H](C)NC(=O)[C@H]([C@@H](C)O)NC(=O)[C@H](CSSC[C@H](NC(=O)[C@H](Cc4ccccc4)NC(=O)[C@H](CO)NC(=O)[C@H](CC(C)C)NC(=O)[C@H](CCCNC(=N)N)NC(=O)[C@H](Cc4ccc(O)cc4)NC(=O)[C@H](CCCCN)NC(=O)[C@H](CCCCN)NC(=O)[C@H](CO)NC(=O)[C@H](Cc4c[nH]cn4)NC(=O)[C@H](CCCCN)NC3=O)C(=O)N[C@@H](CCCNC(=N)N)C(=O)N[C@@H](CCCCN)C(=O)N[C@@H]([C@@H](C)O)C(=O)N2)NC(=O)[C@H](CCCNC(=N)N)NC(=O)[C@H](CO)NC(=O)[C@H](CCCCN)NC(=O)[C@@H]2CCCN2C(=O)[C@H]([C@@H](C)CC)NC(=O)[C@H]([C@@H](C)O)NC(=O)[C@H](CC(=O)O)NC1=O [[Lys21]ShK] | 3.59 nM | 0.822 nM | 4.82 nM |
| CC[C@H](C)[C@@H]1NC(=O)[C@@H](NC(=O)[C@H](CO)NC(=O)[C@@H](N)CCCNC(=N)N)CSSC[C@@H](C(=O)O)NC(=O)[C@H]([C@@H](C)O)NC(=O)CNC(=O)[C@@H]2CSSC[C@@H]3NC(=O)[C@H](CCC(N)=O)NC(=O)[C@H](Cc4ccccc4)NC(=O)[C@H](C)NC(=O)[C@H]([C@@H](C)O)NC(=O)[C@H](CSSC[C@H](NC(=O)[C@H](Cc4ccccc4)NC(=O)[C@H](CO)NC(=O)[C@H](CCCCN)NC(=O)[C@H](CCCNC(=N)N)NC(=O)[C@H](Cc4ccc(O)cc4)NC(=O)[C@H](CCCCN)NC(=O)[C@H](CCSC)NC(=O)[C@H](CO)NC(=O)[C@H](Cc4c[nH]cn4)NC(=O)[C@H](CCCCN)NC3=O)C(=O)N[C@@H](CCCNC(=N)N)C(=O)N[C@@H](CCCCN)C(=O)N[C@@H]([C@@H](C)O)C(=O)N2)NC(=O)[C@H](CCCNC(=N)N)NC(=O)[C@H](CO)NC(=O)[C@H](CCCCN)NC(=O)[C@@H]2CCCN2C(=O)[C@H]([C@@H](C)CC)NC(=O)[C@H]([C@@H](C)O)NC(=O)[C@H](CC(=O)O)NC1=O [[Lys25]ShK] | 0.226 nM | 0.101 nM | 0.366 nM |
